According to ChEMBL document CHEMBL3407389, “1,3,4-Thiadiazoles: a potent multi targeted pharmacological scaffold” (Eur J Med Chem, 2015):
Converted amounts (≈) assume the structure as drawn.

Columns and labels:
[1] = target: T1, Polyunsaturated fatty acid 5-lipoxygenase (Homo sapiens, UniProt P09917); experiment: Inhibition of 5-LO (unknown origin)
T1 sequence (P09917 whole entry): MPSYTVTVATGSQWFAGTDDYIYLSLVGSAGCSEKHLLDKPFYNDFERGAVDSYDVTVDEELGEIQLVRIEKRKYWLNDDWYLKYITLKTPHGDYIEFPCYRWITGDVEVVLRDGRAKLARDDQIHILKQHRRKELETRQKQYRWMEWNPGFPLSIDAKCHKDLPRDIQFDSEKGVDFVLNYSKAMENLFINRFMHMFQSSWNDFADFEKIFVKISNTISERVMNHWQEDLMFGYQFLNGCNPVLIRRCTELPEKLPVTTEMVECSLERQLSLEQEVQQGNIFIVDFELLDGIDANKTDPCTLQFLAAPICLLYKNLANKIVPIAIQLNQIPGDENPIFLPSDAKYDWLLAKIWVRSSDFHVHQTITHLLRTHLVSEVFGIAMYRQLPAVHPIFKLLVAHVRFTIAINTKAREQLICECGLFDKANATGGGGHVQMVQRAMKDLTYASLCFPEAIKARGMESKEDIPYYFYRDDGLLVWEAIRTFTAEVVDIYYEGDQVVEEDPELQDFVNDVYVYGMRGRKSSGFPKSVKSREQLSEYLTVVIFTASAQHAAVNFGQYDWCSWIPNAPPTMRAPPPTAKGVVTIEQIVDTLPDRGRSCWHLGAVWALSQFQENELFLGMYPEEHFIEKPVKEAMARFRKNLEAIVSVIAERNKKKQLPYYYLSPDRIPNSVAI

Cyclooxygenase = Cyclooxygenase (Homo sapiens, UniProt P35354+P23219); experiment: Inhibition of CO (unknown origin)
Mus musculus [2] = organism: Mus musculus; experiment: Anticonvulsant activity in mouse assessed as protection against shock-induced seizures by MES test; assay type: functional
Mus musculus [3] = organism: Mus musculus; experiment: Anticonvulsant activity in mouse by MES test; assay type: functional
Helicobacter pylori [4] = experiment: Antimicrobial activity against Helicobacter pylori at 1 ug/disc; assay type: functional; details: read-out: IZ
Helicobacter pylori [5] = experiment: Antimicrobial activity against Helicobacter pylori by disc diffusion method; assay type: functional
Helicobacter pylori [6] = experiment: Potency index, ratio of IZ for compound to IZ for metronidazole against Helicobacter pylori by disc diffusion method; assay type: functional
Carbonic anhydrase = Carbonic anhydrase (Bos taurus, UniProt P00921+Q95323+P18915+Q3SZX4); experiment: Inhibition of bovine carbonic anhydrase 5; assay type: protein assay
Carbonic anhydrase 9 = Carbonic anhydrase 9 (Homo sapiens, UniProt Q16790); experiment: Inhibition of human carbonic anhydrase 9
Carbonic anhydrase 1 = Carbonic anhydrase 1 (Homo sapiens, UniProt P00915); experiment: Inhibition of human carbonic anhydrase 1
Carbonic anhydrase 2 = Carbonic anhydrase 2 (Homo sapiens, UniProt P00918); experiment: Inhibition of human carbonic anhydrase 2
[7] = system: Human immunodeficiency virus 2; experiment: Antiviral activity against HIV2 ROD by MTT assay; assay type: functional, organism-based; details: Human immunodeficiency virus 2, ISOLATE ROD
[8] = system: Human immunodeficiency virus 1; experiment: Antiviral activity against HIV1 3B by MTT assay; assay type: functional, organism-based; details: Human immunodeficiency virus 1, 3B
[9] = system: Human immunodeficiency virus 2; experiment: Antiviral activity against HIV2 infected in human MT4 cells; assay type: functional, organism-based; details: Human immunodeficiency virus 2, MT4
[10] = system: Human immunodeficiency virus 1; experiment: Antiviral activity against HIV1 infected in human MT4 cells; assay type: functional, organism-based; details: Human immunodeficiency virus 1, MT4

Sequence of Carbonic anhydrase 1 (P00915 whole entry): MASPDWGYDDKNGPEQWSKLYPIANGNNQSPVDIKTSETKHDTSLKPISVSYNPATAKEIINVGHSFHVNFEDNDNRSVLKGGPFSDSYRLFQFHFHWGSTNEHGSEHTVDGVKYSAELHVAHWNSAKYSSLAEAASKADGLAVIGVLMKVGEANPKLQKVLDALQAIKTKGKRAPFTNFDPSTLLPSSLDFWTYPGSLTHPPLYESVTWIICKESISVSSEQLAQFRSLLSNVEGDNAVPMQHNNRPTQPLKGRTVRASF

Q: `CC(C)(C)c1cc(-c2n[nH]c(=S)s2)cc(C(C)(C)C)c1O.C[N+](C)(C)CCO` was tested. Which IC50 [1] did it give?
A: The IC50 was 2800 nM.

Q: What about the IC50 (Cyclooxygenase) of the same compound?
A: The IC50 was 800 nM.

Q: With `Clc1ccc(Nc2nnc(-c3ccncc3)s2)cc1` as the compound, how does the Activity (Mus musculus [2]) read?
A: Its Activity is 100%.

Q: With `CNc1nnc(-c2ccccc2-c2ccccc2)s1` as the compound, how does the ED50 (Mus musculus [3]) read?
A: Its ED50 is 18 mg/kg.

Q: How did the zone of inhibition at 1 µg/disc (Helicobacter pylori [4]) turn out when `Cn1c([N+](=O)[O-])cnc1-c1nnc(S)s1` was run?
A: Its zone of inhibition at 1 µg/disc is 7.7 mm.

Q: With `CC1CN(c2nnc(-c3ncc([N+](=O)[O-])n3C)s2)CC(C)N1` (centres undefined) as the compound, how does the “inhibition zone (IZ)” value (Helicobacter pylori [5]) read?
A: Its value is 30.9 mm.

Q: What about the “fold change (FC)” value (Helicobacter pylori [6]) of the same compound?
A: The value was 5.

Q: Which Ki (Carbonic anhydrase) does the source give for `NS(=O)(=O)c1nnc(NS(=O)(=O)c2ccc(-[n+]3ccccc3)cc2)s1` here?
A: Its Ki is 2 nM.

Q: What about the Ki (Carbonic anhydrase 9) of the same compound?
A: The Ki was 6 nM.

Q: And the Ki (Carbonic anhydrase 1)?
A: The Ki was 3 nM.

Q: What about the Ki (Carbonic anhydrase 2) of the same compound?
A: The Ki was 0.2 nM.

Q: Which results are given for `O=C(COc1ccc2ccccc2c1)NCc1nnc(Nc2ccccc2)s1`?
A: EC50 [7]: 0.961 µg/mL (≈ 2.46 µM); EC50 [8]: 0.961 µg/mL (≈ 2.46 µM)

Q: Which results are given for `c1ccc(C2=Nn3cnnc3SC2)cc1`?
A: EC50 [9]: 1.97 µg/mL (≈ 9.11 µM); EC50 [10]: 1.97 µg/mL (≈ 9.11 µM)

Q: Which EC50 [9] does the source give for `Cc1ccc(S(=O)(=O)NCc2nnc(Nc3ccc(Cl)cc3)s2)cc1` here?
A: The EC50 was 9.9 µg/mL (≈ 25.1 µM).

Q: What about the EC50 [10] of the same compound?
A: Its EC50 is 23.9 µg/mL (≈ 60.5 µM).

Q: `Cc1ncc([N+](=O)[O-])n1CCO` [METRONIDAZOLE] was tested. Which zone of inhibition at 1 µg/disc (Helicobacter pylori [4]) did it give?
A: The zone of inhibition at 1 µg/disc was 16.3 mm.

Q: And the “inhibition zone (IZ)” value (Helicobacter pylori [5])?
A: The value was 6 mm.
